The text below walks through data of paper PMC11599901, “Enhancing the solubility and antibacterial activity of novel molecular salts of enrofloxacin drug with isomeric pyridinedicarboxylic acids” (Scientific Reports, 2024).

A word on the solubility: it is the concentration that dissolves in the medium under given conditions. High values mean a readily soluble substance, low ones a poorly soluble substance.

The nature of series [1]: Water solubility by the gravimetric method. To be noted: 25 °C. The class given is physicochemical. How it is done: Temperature was maintained using a calibrated UltraUB 20 F with a DLK 25 circulating cooler (Lauda, Germany). A specific amount of the substance under investigation was carefully weighed using a precise analytical balance (Sartorius RC 210D). The mixture of salts and water was thoroughly mixed to ensure complete dissolution of the substance under investigation and left for 2 h to achieve equilibrium between the solution and the precipitate. Then, the solution was filtered, and the remaining precipitate was dried to a constant mass to remove the solvent. The difference between the initial mass of the substance m0 and the mass of the undissolved substance m1 allowed for the determination of the mass of the substance dissolved in the given mass of solvent.
Each measurement was taken in triplicate.

The conditions of series [2]: cited from earlier work.
Series [3] has as its system Streptococcus pyogenes ATCC 19615. Kind of series: Broth microdilution antibacterial activity (MIC/MBC), CLSI M07. The class given is cell-based. To be noted: 24 h at 37 °C; for MBC (minimal bactericidal concentration) / MIC (minimal inhibitory concentration): Mueller-Hinton medium. How it is done: (§1) The antibacterial activity of the enrofloxacin salts was determined against two Gram-positive strains (Staphylococcus aureus ATCC 6358, Streptococcus pyogenes ATCC 19615) and two Gram-negative bacteria (Escherichia coli ATCC 25922, Pseudomonas aeruginosa ATCC 15442). The determination was performed in accordance with Clinical and Laboratory Standards Institute (CLSI) standard […] for antimicrobial susceptibility testing of aerobic bacteria. The assessment was performed using the broth microdilution method with Mueller-Hinton medium. The tested samples were accompanied by biotic controls, i.e. without the addition of newly synthesized compounds, and abiotic controls, i.e. without the addition of microorganisms. All probes were incubated for 24 h at 37 °C. Microbial growth was measured using a microplate reader (Multiskan FC Microplate Photometer, ThermoFisher Scientific, Pudong, Shanghai, China) at λ = 630 nm. The follow were determined: the minimal inhibitory concentration (MIC), defined as the lowest concentration of a compound that prevents visible growth of bacteria, and minimal bactericidal concentration (MBC), defined as the lowest concentration of a substance that completely limits the viability of microorganisms.

The subject of series [4] is Pseudomonas aeruginosa ATCC 15442. Described as above. Format: cell-based. As to conditions: 24 h at 37 °C; for MBC (minimal bactericidal concentration) / MIC (minimal inhibitory concentration): Mueller-Hinton medium. How it is done:
as §1

Series [5] concerns Staphylococcus aureus ATCC 6358. The description is as above. Format: cell-based. To be noted: 24 h at 37 °C; for MBC (minimal bactericidal concentration) / MIC (minimal inhibitory concentration): Mueller-Hinton medium. As for the experimental part:
as §1

Series [6] concerns Escherichia coli ATCC 25922. The description is as above. The class given is cell-based. As to conditions: 24 h at 37 °C; for MBC (minimal bactericidal concentration) / MIC (minimal inhibitory concentration): Mueller-Hinton medium. As for the experimental part:
as §1

Values after ≈ are worked out from the molar mass of the structure shown. Like-named read-outs stand apart in the source and are kept apart here.

In series [1], `O=C(O)c1ccc(C(=O)O)nc1` [Py2,5DCA, pyridine-2,5-dicarboxylic acid] had a solubility in water of 1237 µg/mL (≈ 7400 µM).
For the molecule `O=C(O)CC(O)C(=O)O` (stereo not drawn) [malic acid], the solubility in water in series [2] (ref 41) was 16130 µg/mL (≈ 120000 µM).
On to `CCN1CCN(c2cc3c(cc2F)c(=O)c(C(=O)O)cn3C2CC2)CC1.O.O=C(O)c1cccc(C(=O)O)n1` [EFX·Py2,6DCA·H2O], for which the “MBC (minimal bactericidal concentration)” value in series [3] worked out at 0.25 µg/mL; in series [4], 2 µg/mL; in series [5], 0.25 µg/mL; in series [6], 0.015 µg/mL. Besides, the “MIC (minimal inhibitory concentration)” value in series [3] is 0.125 µg/mL; in series [4], 1 µg/mL; in series [5], 0.25 µg/mL; in series [6], 0.0078 µg/mL.
Turning to `CCN1CCN(c2cc3c(cc2F)c(=O)c(C(=O)O)cn3C2CC2)CC1.O=C(O)c1cccnc1C(=O)O` [EFX·Py2,3DCA], the “MBC (minimal bactericidal concentration)” value was determined as 0.25 µg/mL in series [3], 2 µg/mL in series [4], 0.25 µg/mL in series [5] and 0.031 µg/mL in series [6]. In addition, the “MIC (minimal inhibitory concentration)” value in series [3] came out at 0.125 µg/mL; in series [4], 1 µg/mL; in series [5], 0.25 µg/mL; in series [6], 0.0078 µg/mL.
`CCN1CCN(c2cc3c(cc2F)c(=O)c(C(=O)O)cn3C2CC2)CC1` [EFX, 1-cyclopropyl-7-(4-ethyl-1-piperazinyl)-6-fluoro-1,4-dihydro-4-oxo-3-quinolinecarboxylic acid, reference compound]: the MBC in series [3] (ATCC19615, Mueller-Hinton medium, read-out: MBC (minimal bactericidal concentration)) stood at 0.125 µg/mL (≈ 0.348 µM); in series [4] (ATCC15442, Mueller-Hinton medium, read-out: MBC (minimal bactericidal concentration)), 1 µg/mL (≈ 2.78 µM); in series [5] (ATCC6358, Mueller-Hinton medium, read-out: MBC (minimal bactericidal concentration)) it was 0.25 µg/mL (≈ 0.696 µM); in series [6] (ATCC25922, Mueller-Hinton medium, read-out: MBC (minimal bactericidal concentration)), 0.0078 µg/mL (≈ 0.0217 µM). In addition, the MIC in series [3] (ATCC19615, Mueller-Hinton medium, read-out: MIC (minimal inhibitory concentration)) amounted to 0.0625 µg/mL (≈ 0.174 µM); in series [4] (ATCC15442, Mueller-Hinton medium, read-out: MIC (minimal inhibitory concentration)) it was 0.5 µg/mL (≈ 1.39 µM); in series [5] (ATCC6358, Mueller-Hinton medium, read-out: MIC (minimal inhibitory concentration)) it was 0.0625 µg/mL (≈ 0.174 µM); in series [6] (ATCC25922, Mueller-Hinton medium, read-out: MIC (minimal inhibitory concentration)), 0.0078 µg/mL (≈ 0.0217 µM). The solubility in water was 610 µg/mL (≈ 1700 µM) in series [2] (ref 34) and 140 µg/mL (≈ 390 µM) in series [2] (ref 41). Besides, the solubility at 2 h in series [1] (thermodynamic from solid) was found to be 176 µg/mL (≈ 490 µM).
For `CCN1CCN(c2cc3c(cc2F)c(=O)c(C(=O)O)cn3C2CC2)CC1.O=C(O)c1ccnc(C(=O)O)c1` [EFX·Py2,4DCA], the “MBC (minimal bactericidal concentration)” value was determined as 0.25 µg/mL in series [3], 2 µg/mL in series [4], 0.25 µg/mL in series [5] and 0.031 µg/mL in series [6]. Further, the “MIC (minimal inhibitory concentration)” value in series [3] stood at 0.125 µg/mL; in series [4], 1 µg/mL; in series [5], 0.25 µg/mL; in series [6], 0.0078 µg/mL.
On to `CCN1CCN(c2cc3c(cc2F)c(=O)c(C(=O)O)cn3C2CC2)CC1.O.O=C(O)c1ccc(C(=O)O)nc1` [EFX·Py2,5DCA·H2O], for which the “MBC (minimal bactericidal concentration)” value is 0.25 µg/mL in series [3], 2 µg/mL in series [4], 0.25 µg/mL in series [5] and 0.031 µg/mL in series [6]. The “MIC (minimal inhibitory concentration)” value in series [3] is 0.125 µg/mL; in series [4] it was 1 µg/mL; in series [5] it was 0.25 µg/mL; in series [6], 0.0078 µg/mL.
